Laboratory results as given in patent US20190307783A1, “USE OF ANTIVIRALS TO INHIBIT PROTOZOAN VIRUSES” (priority 2016, published 2019).
“Also recorded” adds a separate entry of the source.

Tests used:
dsRNA LRV1 genome = test: Quantitative anti-dsRNA slot blots of LRV1 genome; type: cell-based, Leishmania RNA virus 1 in Leishmania guyanensis; conditions: LgyLRV1+
Procedure: RNA slot blot analysis was performed as described previously (36).

Lgy LRV1 RDRP = Lgy LRV1 RDRP (Leishmania RNA virus 1 - 4, UniProt Q02382); test: RDRP assay of purified virions, [α-32P]UTP incorporation; type: biochemical, Leishmania RNA virus 1 (Lgy strain M4147); conditions: concentrations up to 1000 μM; listed as 2CMA
Procedure: RDRP assays were carried out with LRV1 virions purified from Lgy strain M4147 by an established cesium chloride (CsCl) equilibrium ultracentrifugation procedure {Widmer, 1989; Widmer, 1990}. Following separation, virus particles were detected and quantified by their reactivity with an anti-capsid antibody (FIG. 21). We reproducibly observed three overlapping ‘peaks’, designated low-, medium-, and high-density (LD, MD and HD) in order of increasing density. […] The densities of the Lgy LRV1 LD, MD and HD peaks were 1.29, 1.36 and 1.41 g/mL, in good agreement with the densities of L-A virus particles bearing ssRNA- and dsRNA- (1.31 and 1.41 g/mL, respectively) {Esteban, 1986}. […]
To measure RDRP activity, purified virions were allowed to incorporate [α-^32P]UTP in the presence of the remaining nucleoside triphosphates for 1 hour, a time chosen to allow one round of transcription or replication of the viral genome {Widmer, 1990}. RNA was purified and separated by native gel electrophoresis, and the products were visualized and quantified. […]
RDRP activity of purified virions was measured using an [α-^32P]UTP incorporation assay described previously{Widmer, 1990}. […] The standards lane was excised and stained with ethidium bromide, while the radiolabeled products were detected by exposing an imaging plate for 24 hours and reading it with a FLA-5100 phosphoimager (Fujifilm, Tokyo, Japan). […]

L. guyanensis (LgyLRV1+) = test: Drug-inhibition test: growth of LgyLRV1+ parasites; type: cell-based, Leishmania guyanensis
[1] = system: L. braziliensis strains bearing LRV1; test: Growth inhibition of L. braziliensis strains bearing LRV1; type: cell-based; conditions: Leishmania braziliensis
Procedure: (§1) For 2CMA, the EC50 was estimated to be ˜3 μM for LRV1 capsid inhibition, versus >100 μM for parasite growth (FIG. 11A), at least 30-fold selective. […] Several studies were carried out with L. braziliensis strains bearing LRV1 (12). The 2CMA EC50 for LbrLRV1 was similar to that seen with LgyLRV1 (˜3 μM); however, parasites were somewhat more susceptible to growth inhibition (EC50 50-100 μM). Because the available quantities of 7d2CMA were limiting and both compounds were similarly selective for L. guyanensis, we focused thereafter on 2CMA.
(§2) Most studies were performed using luciferase-expressing transfectants of L. guyanensis (MHOM/BR/78/M4147) described previously [LRV1^+ LgyM4147/SSU:IR2SAT-LUC(b)c3 and LRV^−LgyM4147/pX63HYG/SSU:IR2SAT-LUC(b)c4] (54); these lines are termed LgyLRV1^+ and LgyLRV1^−, respectively. Two strains of LRV1^+L. braziliensis were examined: LEM2780 (MHOM/BO/90/CS) and LEM3874 (MHOM/BO/99/IMT252 no. 3) (12). Parasites were grown in Schneider's media (Sigma Aldrich, St. Louis, Mo., USA) prepared according to the supplier's instructions with pH adjusted to 6.5 and supplemented with 0.76 mM hemin, 2 μg/mL biopterin, 50 U/mL penicillin, 50 μg/mL streptomycin, and 10% (vol/vol) heat-inactivated FBS. Cell concentrations were determined using a Coulter Counter ([…], Indianapolis, Ind., USA).

LbrLRV1 = test: LRV1 inhibition in L. braziliensis strains bearing LRV1; type: cell-based, Leishmania RNA virus 1 in Leishmania braziliensis; conditions: Leishmania braziliensis
Procedure: as §1, §2

[2] = system: LRV1 (LgyLRV1 capsid levels); conditions: from Kuhlmann, 2017; cited from earlier work

Sequence of Lgy LRV1 RDRP (Q02382 whole entry): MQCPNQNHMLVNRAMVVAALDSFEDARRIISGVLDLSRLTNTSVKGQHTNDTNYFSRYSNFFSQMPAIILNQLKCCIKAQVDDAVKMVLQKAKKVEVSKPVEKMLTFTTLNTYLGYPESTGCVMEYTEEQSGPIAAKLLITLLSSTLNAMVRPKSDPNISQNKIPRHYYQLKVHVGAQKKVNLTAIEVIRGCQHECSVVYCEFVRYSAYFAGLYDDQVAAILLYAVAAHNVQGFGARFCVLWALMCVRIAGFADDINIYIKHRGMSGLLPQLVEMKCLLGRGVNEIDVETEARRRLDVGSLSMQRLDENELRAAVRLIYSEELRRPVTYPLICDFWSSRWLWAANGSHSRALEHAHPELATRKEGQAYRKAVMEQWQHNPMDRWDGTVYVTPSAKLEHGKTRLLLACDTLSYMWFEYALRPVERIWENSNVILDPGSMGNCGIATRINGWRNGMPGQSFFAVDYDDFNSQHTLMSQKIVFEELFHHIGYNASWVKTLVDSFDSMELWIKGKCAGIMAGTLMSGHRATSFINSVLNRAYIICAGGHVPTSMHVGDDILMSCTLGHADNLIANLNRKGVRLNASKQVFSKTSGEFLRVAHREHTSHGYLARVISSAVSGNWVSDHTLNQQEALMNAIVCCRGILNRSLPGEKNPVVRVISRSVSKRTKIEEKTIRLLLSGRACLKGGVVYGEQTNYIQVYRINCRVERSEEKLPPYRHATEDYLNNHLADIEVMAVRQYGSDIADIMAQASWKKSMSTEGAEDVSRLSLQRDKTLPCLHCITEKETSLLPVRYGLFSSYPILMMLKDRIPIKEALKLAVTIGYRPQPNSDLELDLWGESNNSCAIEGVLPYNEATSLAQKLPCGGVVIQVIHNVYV

SMILES: C[C@@]1(O)[C@H](O)[C@@H](CO)O[C@H]1n1cnc2c(N)ncnc21 [2′C-methyadenosine, 2′-C-methyladenosine]
- EC50 (dsRNA LRV1 genome): ~1 µM
- Inhibition of RDRP activity, in words (Lgy LRV1 RDRP): did not measurably inhibit; also recorded: completely inactive
- Population doubling time (L. guyanensis (LgyLRV1+); L. guyanensis at 100 μM, untreated 6.4 hours): 8.5 h
- activity at 100 µM (L. guyanensis (LgyLRV1+); Leishmania guyanensis, 48 h, LgyLRV1+, tested at 100 μM, growth after 2 days, read-out: Percent control (density)): 72%
- EC50 (L. guyanensis (LgyLRV1+); Leishmania guyanensis, L. guyanensis, relative cellular growth rate, titration, read-out: EC50 for parasite growth): > 100 µM
- inhibition at 100 µM (L. guyanensis (LgyLRV1+); Leishmania guyanensis, tested at 100 μM, read-out: Inhibition of parasite density): 30%
- Density (cells/mL) (L. guyanensis (LgyLRV1+); LgyLRV1+, tested at 100 μM, growth after 2 days): 1.22E+7 cells/mL
- EC50 [1]: 50 to 100 µM
- EC50 (LbrLRV1): ~3 µM
- Concentration that eradicates / completely inhibits LRV1 replication [2]: 10 µM
